Test results published in patent publication US12122756B2, “Biflavone compound against I-type herpes simplex virus, and preparation method therefor and use thereof” (priority 2022, dated 2024).

Tests used:
HSV-I [1] = experiment: Action mode: direct inactivation effect on HSV-I (CPE, CCK-8); assay type: cell-based, Herpes simplex virus type I
Method: (3) The direct inactivation effect of drugs on HSV-I: Vero cells were seeded in a 96-well plate and grew into a monolayer. Different concentrations of samples were respectively mixed with the virus solution, followed by placing at 37° C. for 1 hour. Then, the solution was added the cells, and incubated for 1 hour. Then, the cell maintenance solution was replaced, and the cells were further cultured. After 72 hours, the direct inactivation effects of drugs on HSV-I was determined using the CCK-8 method. Moreover, a virus control group was set up.

[2] = Solubility (highest solubility used as starting concentration; water solubility)
HSV-I [3] = experiment: Plaque-reduction method: plaque formation in Vero cells induced by HSV-I; assay type: cell-based, Herpes simplex virus type I
Method: (2) Measurement of the inhibitory effect of drugs on the formation of plaque in Vero cells induced by HSV-I using plaque-reduction method: Vero cells were seeded into a 24-well plate and grew into a monolayer the next day. Then, the 100 PFU/0.2 ml virus solution was added to infect the cells, and a cell control group was included. After incubation with the virus, the agarose cover solution for maintenance of cells, containing different concentrations of the test drug, was replaced, followed by cultivation for additional 72 hours. The cell culture was fixed with 4% paraformaldehyde, stained with 1% crystal violet solution, washed, and dried. The plaque was counted to calculate plaque-forming inhibition ratio of the drug. [formula] 5. Study on the Action Mode of the Test Drug

COc1c(O)c(Cc2c(O)c(OC)c(O)c3c(=O)c(-c4ccc(O)c(S(=O)(=O)[O-])c4)coc23)c2occ(-c3ccc(O)c(S(=O)(=O)[O-])c3)c(=O)c2c1O.[Na+].[Na+] [Compound 2, 8,8″-methylene-di-(sodiumtectorigenin-5′-sulphonate)]
Direct inactivation: OD value (HSV-I [1]; 5.97 μg/ml, n = 6): 0.33 ± 0.04 | Direct inactivation: OD value (HSV-I [1]; 11.94 μg/ml, n = 6): 0.39 ± 0.05 | Direct inactivation: OD value (HSV-I [1]; 23.88 μg/ml, n = 6): 0.48 ± 0.06 | Direct inactivation: OD value (HSV-I [1]; 47.45 μg/ml, n = 6): 0.55 ± 0.08 | Direct inactivation: OD value (HSV-I [1]; 95.50 μg/ml, n = 6): 0.65 ± 0.08 | Direct inactivation: OD value (HSV-I [1]; 191.00 μg/ml, n = 6): 0.90 ± 0.09 | Direct inactivation: OD value (HSV-I [1]; 382.00 μg/ml, n = 6): 1.08 ± 0.06 | direct inactivation of the virus (in words) (HSV-I [1]; CPE method): significant effect | inhibition at 5.97 µg/mL (HSV-I [1]; Human alphaherpesvirus 1, 5.97 μg/ml, n = 6, read-out: Direct inactivation: Inhibition rate (%)): 3.91% | inhibition at 11.94 µg/mL (HSV-I [1]; Human alphaherpesvirus 1, 11.94 μg/ml, n = 6, read-out: Direct inactivation: Inhibition rate (%)): 10.8% | inhibition at 23.88 µg/mL (HSV-I [1]; Human alphaherpesvirus 1, 23.88 μg/ml, n = 6, read-out: Direct inactivation: Inhibition rate (%)): 22.4% | inhibition at 47.45 µg/mL (HSV-I [1]; Human alphaherpesvirus 1, 47.45 μg/ml, n = 6, read-out: Direct inactivation: Inhibition rate (%)): 31.2% | inhibition at 95.5 µg/mL (HSV-I [1]; Human alphaherpesvirus 1, 95.50 μg/ml, n = 6, read-out: Direct inactivation: Inhibition rate (%)): 44.2% | inhibition at 191 µg/mL (HSV-I [1]; Human alphaherpesvirus 1, 191.00 μg/ml, n = 6, read-out: Direct inactivation: Inhibition rate (%)): 76% | inhibition at 382 µg/mL (HSV-I [1]; Human alphaherpesvirus 1, 382.00 μg/ml, n = 6, read-out: Direct inactivation: Inhibition rate (%)): 98.7% | solubility [2]: 1600 µg/mL | inhibitory effect on plaque formation induced by HSV-I (in words) (HSV-I [3]): significant inhibitory effect
